Some results are limits rather than exact numbers.

The test system of experiment [1] is phospho-myosin light chains (ppMlc, Thr18/Ser19) in A7R5 cells. The experiment is described as follows: A7R5 in-cell ELISA, phospho-myosin light chain. To be noted: for IC50 / inhibition at 10 µM: Rattus norvegicus, A7R5 cells; for IC50: 1.5 h, 90 min, read-out: pMLC IC50 A7R5; for inhibition at 10 µM: read-out: pMLC % inh A7R5. It counts as cell-based, rat. Here is the method:
Determination of compounds ROCK inhibitory activity in A7R5 cells: rat aortic smooth muscle cell line A7R5 cells were maintained and treated in DMEM medium with 10% of fetal bovine serum. Cells were seeded with density of 5,000 cells/well in 96-well plates for 24 hours and subsequently treated 90 min with testing compounds. Cells were then fixed and processed according to the In-Cell ELISA Colorimetric Detection Kit manual (Thermo Scientific). Cellular phospho-myosin light chains (ppMlc, Thr18/Ser19) levels were determined after treatments of DMSO control or test compounds using the In-Cell ELISA kit. The percent inhibition rate was calculated by applying the data obtained with 1 μM (or 10 μM) compound treatment to the formula, [1-(compound/DMSO)]×100%. ppMlc data obtained with 9 points 2-fold serial dilution of compounds were applied to the nonlinear regression curve fit function of the GraphPad Prism software to calculate the In cell IC50s.
A7R5 cells were treated with 9 points 2 fold serial dilution of compounds and ppMlc (T18/S19) levels were determined in order to calculate cellular IC50s of the compounds.
Two steps of measurements were adopted for pMLC/A7R5 IC50. Percent inhibition rates were calculated with a single dose (1 μM or 10 μM) compounds treatment to screen for active compounds and then cellular IC50s were measured only in compounds that have over 50% of inhibition rates.

The subject of experiment [2] is luciferase reporter driven by the human ACTA2 gene promoter in NIH3T3 cells. The experiment is described as follows: NIH3T3 cells Acta2-promoter driven-luciferase assay. It is filed as cell-based. To be noted: plus TGF 1, 24 hr, read-out: NIH3T3, Acta2-luc, IC50. Here is the method:
NIH3T3 cells Acta2-promoter driven-luciferase assay: A NIH3T3 cell line stably expressing a luciferase reporter driven by the human ACTA2 gene promoter (−1000-1 bp) was established (NIH3T3-Acta2-luciferase). The cells were plated to confluence and treated with the test compounds plus TGF 1 for 24 hr. Cells were then lysed and luciferase activity was measured using the LightSwitch luciferase kit from Active Motif.

The target of experiment [3] is T1, recombinant ROCK2 (amino acids 1-552) (Homo sapiens, UniProt O75116).
T1 construct: ROCK2 (amino acids 1-552) proteins were purchased from ThermoFisher Scientific; purchased ThermoFisher Scientific
The experiment is described as follows: Z'-lyte kinase assay, ROCK2. It counts as biochemical. Here is the method: (§1) Determination of compounds ROCK inhibitory activity in vitro (Z'lyte assay): recombinant ROCK1 (amino acids 1-535) and ROCK2 (amino acids 1-552) proteins were purchased from ThermoFisher Scientific. Compounds activities were measured by Z′-lyte kinase kit (ThermoFisher Scientific) and IC50s were calculated.
(§2) Table 2, below, provides in vitro and cellular inhibition of ROCKs by compounds of the invention. Compounds activities were measured by Z′-lyte kinase kit (ThermoFisher Scientific). […] IC50s were calculated using the GraphPad Prism software with kinase activities data that were collected from points 9 serial dilution of compounds treatment. The ROCK inhibition in A7R5 cells and NIH3T3 (Acta2-Luc) cells was performed as described above.

For experiment [4], the target named is T2, recombinant ROCK1 (amino acids 1-535) (Homo sapiens, UniProt Q13464).
T2 construct: recombinant ROCK1 (amino acids 1-535) and ROCK2; purchased ThermoFisher Scientific
The experiment is described as follows: Z'-lyte kinase assay, ROCK1. It is filed as biochemical. To be noted: for inhibition at 3 µM: read-out: ROCK1 % inh. Here is the method:
as §1, §2

T1 sequence (O75116 1-552): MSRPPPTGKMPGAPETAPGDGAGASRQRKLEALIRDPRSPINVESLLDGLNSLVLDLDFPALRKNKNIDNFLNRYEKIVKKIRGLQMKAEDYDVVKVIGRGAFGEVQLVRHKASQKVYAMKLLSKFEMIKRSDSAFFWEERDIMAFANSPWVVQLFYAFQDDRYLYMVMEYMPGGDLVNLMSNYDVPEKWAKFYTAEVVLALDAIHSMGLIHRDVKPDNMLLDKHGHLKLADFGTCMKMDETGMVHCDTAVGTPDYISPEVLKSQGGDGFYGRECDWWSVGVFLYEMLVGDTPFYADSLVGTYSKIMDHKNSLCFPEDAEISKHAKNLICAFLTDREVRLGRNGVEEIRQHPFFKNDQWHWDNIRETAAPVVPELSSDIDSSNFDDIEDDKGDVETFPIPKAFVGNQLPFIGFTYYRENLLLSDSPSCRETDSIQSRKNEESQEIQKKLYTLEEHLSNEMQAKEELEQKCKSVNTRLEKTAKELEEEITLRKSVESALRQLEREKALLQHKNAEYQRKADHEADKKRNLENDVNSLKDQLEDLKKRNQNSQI
T2 sequence (Q13464 1-535): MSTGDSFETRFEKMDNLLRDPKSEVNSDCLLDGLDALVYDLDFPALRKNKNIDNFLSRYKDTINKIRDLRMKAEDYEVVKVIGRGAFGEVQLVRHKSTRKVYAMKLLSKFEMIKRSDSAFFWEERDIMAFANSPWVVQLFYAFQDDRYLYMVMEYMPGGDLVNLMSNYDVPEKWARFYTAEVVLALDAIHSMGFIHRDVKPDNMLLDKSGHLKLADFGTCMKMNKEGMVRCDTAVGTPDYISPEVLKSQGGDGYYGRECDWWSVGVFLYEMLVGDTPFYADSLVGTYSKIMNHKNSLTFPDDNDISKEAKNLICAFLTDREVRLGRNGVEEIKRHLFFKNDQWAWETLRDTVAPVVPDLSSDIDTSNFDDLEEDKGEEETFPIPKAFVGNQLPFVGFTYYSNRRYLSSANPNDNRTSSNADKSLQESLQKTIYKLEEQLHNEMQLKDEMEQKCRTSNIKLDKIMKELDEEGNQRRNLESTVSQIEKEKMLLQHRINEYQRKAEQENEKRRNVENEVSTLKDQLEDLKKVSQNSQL

`CNC(C(=O)Nc1ccc2[nH]ncc2c1)c1ccc(OC(F)(F)F)cc1` (stereo not drawn) [Example 56, N-(1H-indazol-5-yl)-2-(methylamino)-2-(4-(trifluoromethoxy)phenyl)acetamide]: the IC50 in experiment [1] came to 546 nM; in experiment [2], 666 nM; in experiment [3], 46 nM.
Consider `CCNC(C(=O)Nc1ccc2[nH]ncc2c1)c1cccc(F)c1` (stereo not drawn) [Example 51, 2-(ethylamino)-2-(3-fluorophenyl)-N-(1H-indazol-5-yl)acetamide], for which the IC50 in experiment [1] stood at 1660 nM; in experiment [2], 5450 nM; in experiment [3], 53 nM.
For the compound `CNC(C(=O)Nc1ccc2[nH]ncc2c1)c1cccc(C)c1` (stereo not drawn) [Example 52, N-(1H-indazol-5-yl)-2-(methylamino)-2-(m-tolyl)acetamide], the IC50 in experiment [1] came to 532 nM; in experiment [2] it was 1510 nM; in experiment [3] it was 34 nM.
Regarding `CN[C@H](C(=O)Nc1ccc2[nH]ncc2c1)c1cccc(OC)c1` [Example 55, (S)-N-(1H-indazol-5-yl)-2-(3-methoxyphenyl)-2-(methylamino)acetamide], the figures for the IC50 in experiment [1], in experiment [2] and in experiment [3] were 589 nM, 773 nM and 30 nM, respectively.
For the compound `CN[C@@H](C(=O)Nc1ccc2[nH]ncc2c1)c1cccc(OC)c1` [Example 54, (R)-N-(1H-indazol-5-yl)-2-(3-methoxyphenyl)-2-(methylamino)acetamide], the IC50 in experiment [1] was 200 nM; in experiment [2] it was 268 nM; in experiment [3] it was 14 nM.
On to `NC(C(=O)Nc1ccc2[nH]ncc2c1)c1ccc(Cl)cc1` (stereo not drawn) [Comp2, reference compound], for which the inhibition at 3 µM in experiment [4] was 92.2%; in experiment [3] (read-out: ROCK2 % inh), 97.5%. Further, the IC50 in experiment [1] came out at 4410 nM.
As for `CNC(C(=O)Nc1ccc2[nH]ncc2c1)c1ccc(C)cc1` (stereo not drawn) [Example 28, N-(1H-indazol-5-yl)-2-(methylamino)-2-(p-tolyl)acetamide], the half-inhibitory concentration (IC50) in experiment [4] stood at 17.8 nM; in experiment [1], 834 nM; in experiment [3], 21.2 nM. For the same compound, the inhibition at 3 µM was 99% in experiment [4] and 98.8% in experiment [3] (read-out: ROCK2 % inh).
As to `O=C(Nc1ccc2[nH]ncc2c1)C1NCc2ccccc21` (stereo not drawn) [Example 6, N-(1H-indazol-5-yl)isoindoline-1-carboxamide], the results for the IC50 in experiment [4] and in experiment [3] were 421 nM and over 1000 nM, respectively. Also, the inhibition at 10 µM in experiment [1] worked out at 1%.
For `CNC(C(=O)Nc1ccc2[nH]ncc2c1)c1ccc(F)cc1` (stereo not drawn) [Example 19, 2-(4-fluorophenyl)-N-(1H-indazol-5-yl)-2-(methylamino)acetamide], the IC50 in experiment [4] was 173 nM; in experiment [1], 1600 nM; in experiment [3], 160 nM. For the same compound, the results for the inhibition at 3 µM in experiment [4] and in experiment [3] (read-out: ROCK2 % inh) were 21.4% and 96.6%, respectively.
The corresponding values for `CC(C)NC(C(=O)Nc1ccc2[nH]ncc2c1)c1ccc(F)cc1` (stereo not drawn) [Example 20, 2-(4-fluorophenyl)-N-(1H-indazol-5-yl)-2-(isopropylamino)acetamide] are 561 nM, 2510 nM, 152 nM, 18.4% and 94.6%.
In the case of `CC(C)(C)NC(C(=O)Nc1ccc2[nH]ncc2c1)c1ccccc1` (stereo not drawn) [Example 37, 2-(tert-butylamino)-N-(1H-indazol-5-yl)-2-phenylacetamide], the IC50 in experiment [4] was found to be 98.1 nM; in experiment [1], 2600 nM; in experiment [3] it was 74.3 nM. In addition, the inhibition at 3 µM in experiment [4] came to 99%; in experiment [3] (read-out: ROCK2 % inh), 98.8%.
For `COc1ccc(C(N)C(=O)Nc2ccc3[nH]ncc3c2)cc1` (stereo not drawn) [Comp4, reference compound], the inhibition at 3 µM in experiment [4] amounted to 95.8%. Moreover, the IC50 in experiment [1] came out at 6160 nM. Besides, the inhibition at 1 µM in experiment [3] (@ 1 μM, read-out: ROCK2 % inh) amounted to 96.5%.
Regarding `CNC(C(=O)Nc1ccc2[nH]ncc2c1)c1ccccn1` (stereo not drawn) [Example 40, N-(1H-indazol-5-yl)-2-(methylamino)-2-(pyridin-2-yl)acetamide], the IC50 in experiment [4] was found to be 143 nM; in experiment [3] it was 453 nM. In addition, the inhibition at 10 µM in experiment [1] amounted to 37%.
Consider `O=C(Nc1ccc2[nH]ncc2c1)C1Cc2ccccc2CN1` (stereo not drawn) [Example 4, N-(1H-indazol-5-yl)-1,2,3,4-tetrahydroisoquinoline-3-carboxamide], for which the IC50 in experiment [4] and in experiment [3] was over 1000 nM in each case. Further, the inhibition at 10 µM in experiment [1] stood at 18%.
As to `CNC(C(=O)Nc1ccc2[nH]ncc2c1)c1ccc(OC)c(F)c1` (stereo not drawn) [Example 57, 2-(3-fluoro-4-methoxyphenyl)-N-(1H-indazol-5-yl)-2-(methylamino)acetamide], the figures for the 50% inhibitory concentration (IC50) in experiment [1], in experiment [2] and in experiment [3] were 339 nM, 473 nM and 25 nM, respectively. In experiment [3] (@ 0.5 μM, read-out: ROCK2 % inh), the inhibition at 0.5 µM amounted to 95%.
As to `CNC(C(=O)Nc1ccc2[nH]ncc2c1)c1cccnc1` (stereo not drawn) [Example 39, N-(1H-indazol-5-yl)-2-(methylamino)-2-(pyridin-3-yl)acetamide], the IC50 was determined as 250 nM in experiment [4], 4200 nM in experiment [1] and 213 nM in experiment [3].
In the case of `CC(C)NC(C(=O)Nc1ccc2[nH]ncc2c1)c1ccc(Cl)cc1` (stereo not drawn) [Example 18, 2-(4-chlorophenyl)-N-(1H-indazol-5-yl)-2-(isopropylamino)acetamide], the inhibition at 3 µM worked out at 89.6% in experiment [4] and 94.1% in experiment [3] (read-out: ROCK2 % inh). For the same compound, the IC50 in experiment [1] came to 2510 nM. Further, the “cellular ROCK inhibition compared with Comparative Example 2” value in experiment [1] (phosphorylation of the ROCK target pMLC in A7R5 cells) is “enhanced”.
In the case of `NC(C(=O)Nc1ccc2[nH]ncc2c1)c1cccc(F)c1` (stereo not drawn) [Comp6, reference compound], the IC50 amounted to 41.3 nM in experiment [4], 6990 nM in experiment [1] and 41.8 nM in experiment [3]. Also, the inhibition at 3 µM in experiment [4] is 99%; in experiment [3] (read-out: ROCK2 % inh), 98.8%.
For the compound `Cc1ccc(C(NC(C)C)C(=O)Nc2ccc3[nH]ncc3c2)cc1` (stereo not drawn) [Example 29, N-(1H-indazol-5-yl)-2-(isopropylamino)-2-(p-tolyl)acetamide], the values for the half-inhibitory concentration (IC50) in experiment [4], in experiment [1] and in experiment [3] were 65.7 nM, 934 nM and 6.3 nM, respectively. The results for the inhibition at 3 µM in experiment [4] and in experiment [3] (read-out: ROCK2 % inh) were 99% and 98.8%, respectively.
`O=C(Nc1ccc2[nH]ncc2c1)C1NCCc2ccccc21` (stereo not drawn) [Example 5, N-(1H-indazol-5-yl)-1,2,3,4-tetrahydroisoquinoline-1-carboxamide]: the IC50 in experiment [4] amounted to 38 nM; in experiment [1], 35800 nM; in experiment [3], 77 nM.
Take `COc1ccc(C(NC(C)(C)C)C(=O)Nc2ccc3[nH]ncc3c2)cc1` (stereo not drawn) [Example 36, 2-(tert-butylamino)-N-(1H-indazol-5-yl)-2-(4-methoxyphenyl)acetamide]: the IC50 in experiment [4] stood at 24.7 nM; in experiment [1] it was 766 nM; in experiment [3], 9.9 nM. Further, the inhibition at 3 µM in experiment [4] worked out at 99%; in experiment [3] (read-out: ROCK2 % inh), 98.8%.
For `CCNC(C(=O)Nc1ccc2[nH]ncc2c1)c1ccccc1` (stereo not drawn) [Example 21, 2-(ethylamino)-N-(1H-indazol-5-yl)-2-phenylacetamide], the inhibition at 3 µM was 91.5% in experiment [4] and 95.8% in experiment [3] (read-out: ROCK2 % inh). Also, the IC50 in experiment [1] is 2390 nM.
As for `COc1ccc(C(NC(C)C)C(=O)Nc2ccc3[nH]ncc3c2)cc1` (stereo not drawn) [Example 25, N-(1H-indazol-5-yl)-2-(isopropylamino)-2-(4-methoxyphenyl)acetamide], the IC50 in experiment [4] was found to be 10.6 nM; in experiment [1], 633 nM; in experiment [3], 9.7 nM. Further, the inhibition at 3 µM in experiment [4] stood at 99%; in experiment [3] (read-out: ROCK2 % inh), 98.8%.
Regarding `CNC(C(=O)Nc1ccc2[nH]ncc2c1)c1cccc(F)c1` (stereo not drawn) [Example 53, 2-(3-fluorophenyl)-N-(1H-indazol-5-yl)-2-(methylamino)acetamide], the IC50 in experiment [1] is 914 nM; in experiment [2], 1160 nM; in experiment [3] it was 41 nM.

As usually defined, the IC50 is the point on the concentration scale where inhibition reaches its midpoint.

These data come from US11926596B2, “Inhibitors of Rho associated coiled-coil containing protein kinase” (KADMON CORPORATION, LLC, priority 2017, dated 2024).
